Experimental data as given in patent publication US11180487B2, “Substituted cyanoindoline derivatives as NIK inhibitors” (Janssen Pharmaceutica NV, priority 2016, dated 2021).
Where two headings read alike, the source gives them in different places.

Key:
[1] = molecular target: recombinant human NF-kappaB-inducing kinase (NIK/MAP3K14) (Homo sapiens, UniProt Q99558); assay: Inhibition of auto-phosphorylation of recombinant human NIK/MAP3K14 activity (AlphaScreen), Biological Assay A; assay type: biochemical; conditions: averaged values over all measurements on all batches
Chain of recombinant human NF-kappaB-inducing kinase (NIK/MAP3K14) (Q99558 whole entry): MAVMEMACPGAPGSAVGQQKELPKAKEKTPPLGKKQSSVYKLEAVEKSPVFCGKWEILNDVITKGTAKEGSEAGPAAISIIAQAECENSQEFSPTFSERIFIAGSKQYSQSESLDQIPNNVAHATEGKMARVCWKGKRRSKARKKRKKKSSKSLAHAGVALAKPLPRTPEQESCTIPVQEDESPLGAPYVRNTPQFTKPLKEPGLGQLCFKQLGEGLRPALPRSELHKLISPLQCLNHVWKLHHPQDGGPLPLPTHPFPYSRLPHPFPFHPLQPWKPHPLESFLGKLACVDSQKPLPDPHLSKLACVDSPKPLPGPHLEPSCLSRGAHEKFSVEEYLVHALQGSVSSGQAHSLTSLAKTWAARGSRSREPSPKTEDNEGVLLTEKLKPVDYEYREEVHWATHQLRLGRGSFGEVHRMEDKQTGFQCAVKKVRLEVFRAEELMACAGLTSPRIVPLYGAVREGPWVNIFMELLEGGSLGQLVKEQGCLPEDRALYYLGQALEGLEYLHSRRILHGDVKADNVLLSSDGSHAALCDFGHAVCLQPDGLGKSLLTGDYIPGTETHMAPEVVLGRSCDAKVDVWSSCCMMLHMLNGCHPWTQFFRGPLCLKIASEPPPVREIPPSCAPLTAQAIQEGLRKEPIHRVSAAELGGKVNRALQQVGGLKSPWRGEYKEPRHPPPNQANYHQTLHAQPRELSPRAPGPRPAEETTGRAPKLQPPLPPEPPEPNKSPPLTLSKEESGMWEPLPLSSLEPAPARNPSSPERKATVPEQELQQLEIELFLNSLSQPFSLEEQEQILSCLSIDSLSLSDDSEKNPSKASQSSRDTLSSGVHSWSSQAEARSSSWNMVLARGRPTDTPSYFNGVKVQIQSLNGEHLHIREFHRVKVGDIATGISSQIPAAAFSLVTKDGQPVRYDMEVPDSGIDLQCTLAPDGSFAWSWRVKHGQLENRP
Description: Inhibition of Auto-Phosphorylation of Recombinant Human NF-kappaB-Inducing Kinase (NIK/MAP3K14) Activity (AlphaScreen®)
NIK/MAP3K14 auto-phosphorylation activity was measured using the AlphaScreen® (αscreen) format (Perkin Elmer). All compounds tested were dissolved in dimethyl sulfoxide (DMSO) and further dilutions were made in assay buffer. Final DMSO concentration was 1% (v/v) in assays. Assay buffer was 50 mM Tris pH 7.5 containing 1 mM EGTA (ethylene glycol tetraacetic acid), 1 mM DTT (dithiothreitol), 0.1 mM Na3VO4, 5 mM MgCl2, 0.01% Tween® 20. Assays were carried out in 384 well Alphaplates (Perkin Elmer). Incubations consisted of compound, 25 microM Adenosine-5′-triphosphate (ATP), and 0.2 nM NIK/MAP3K14. Incubations were initiated by addition of GST-tagged NIK/MAP3K14 enzyme, carried out for 1 h at 25° C. and terminated by addition of stop buffer containing anti-phospho-IKK Ser176/180 antibody. Protein A Acceptor and Glutathione-Donor beads were added before reading using an EnVision® Multilabel Plate Reader (Perkin Elmer). Signal obtained in the wells containing blank samples was subtracted from all other wells and IC50's were determined by fitting a sigmoidal curve to % inhibition of control versus Log10 compound concentration.

[2] = system: P-IKKα levels in L363 (NIK translocated multiple myeloma) cells; assay: Effect of compounds on P-IKKα levels in L363 cells (Mesoscale sandwich immuno-assay), Biological Assay B; assay type: cell-based, human; conditions: 2 hr treatment, averaged values, read-out: Inhibition of pIKKα_L-363 (IC50 (nM))
Description: Effect of Compounds on P-IKKα Levels in L363 (NIK Translocated Multiple Myeloma) Cells
All compounds tested were dissolved in DMSO and further dilutions were made in culture medium. Final DMSO concentration was 1% (v/v) in cell assays. The human L363 cells (ATCC) were cultured in RPMI 1640 medium supplemented with GlutaMax and 10% fetal calf serum (PAA). Cells were routinely maintained at densities of 0.2×10^6 cells per ml-1×10^6 cells per ml at 37° C. in a humidified 5% CO2 atmosphere. Cells were passaged twice a week splitting back to obtain the low density. Cells were seeded in 96 well plates (Nunc 167008) at 2×10^6 per ml media in a volume of 75 μl per well plus 25 μl 1 μg/ml recombinant human B-cell activating factor (BAFF/BLyS/TNFSF13B). Seeded cells were incubated at 37° C. in a humidified 5% CO2 atmosphere for 24 hr. Drugs and/or solvents were added (20 μl) to a final volume of 120 μl. Following 2 hr treatment plates were removed from the incubator and cell lysis was achieved by the addition of 30 μl 5× lysis buffer followed by shaking on a plate shaker at 4° C. for 10 min. At the end of this incubation lysed cells were centrifuged at 800×g for 20 min at 4° C. and the lysate was assessed for P-IKKα levels by sandwich immuno-assay carried out in anti-rabbit antibody coated Mesoscale plates. Within an experiment, the results for each treatment were the mean of 2 replicate wells. For initial screening purposes, compounds were tested using an 8 point dilution curve (serial 1:3 dilutions). For each experiment, controls (containing MG132 and BAFF but no test drug) and a blank incubation (containing MG132 and BAFF and 10 μM ADS125117, a test concentration known to give full inhibition) were run in parallel. The blank incubation value was subtracted from all control and sample values. To determine the IC50 a sigmoidal curve was fitted to the plot of % inhibition of control P-IKKα levels versus Log10 compound concentration.
Note: Compounds 237 and 238 were tested at a maximum top concentration of 823 nM.

[3] = system: KMS12-BM (NIK WT) multiple myeloma cells; assay: Antiproliferative activity on KMS12-BM multiple myeloma cells (CellTiter-Glo, 96 hr), Biological Assay C; assay type: cell-based, human; conditions: Homo sapiens, KMS-12-BM, 96 h, averaged values, read-out: KMS-12 Proliferation inhibition (IC50 (nM))
Description: (§1) Determination of Antiproliferative Activity on JJN-3 (NIK Translocated) and KMS12-BM (NIK WT) Multiple Myeloma Cells
(§2) All compounds tested were dissolved in DMSO and further dilutions were made in culture medium. Final DMSO concentration was 0.3% (v/v) in cell proliferation assays. Viability was assessed using CellTiter-Glo cell viability assay kit (Promega). The human JJN-3 and KMS12-BM cells (DSMZ) were cultured in RPMI 1640 medium supplemented with 2 mM L-glutamine, and 10% fetal calf serum (PAA). Cells were routinely kept as suspension cells at 37° C. in a humidified 5% CO2 atmosphere. Cells were passaged at a seeding density of 0.2×10^6/ml twice a week. Cells were seeded in black tissue culture treated 96-well plates (Perkin Elmer). Densities used for plating ranged from 15000 (JJN3) to 20000 (KMS12BM) cells per well in a total volume of 135 μl medium. Drugs and/or solvents were added (15 μl) to a final volume of 150 μl. Following 96 hr of treatment, plates were removed from the incubator and allowed to equilibrate to room temperature for approx 10 min. 75 μl CellTiter-Glo reagent was added to each well that was then covered (Perkin Elmer Topseal) and shaken on plate shaker for 10 min. Luminescence was measured on a HTS Topcount (Perkin Elmer).
(§3) Within an experiment, the results for each treatment were the mean of 2 replicate wells. For initial screening purposes, compounds were tested using a 9 point dilution curve (serial 1:3 dilutions). For each experiment, controls (containing no drug) and a blank incubation (containing cells read at the time of compound addition) were run in parallel. The blank value was subtracted from all control and sample values. For each sample, the mean value for cell growth (in relative light units) was expressed as a percentage of the mean value for cell growth of the control.

[4] = system: JJN-3 (NIK translocated) multiple myeloma cells; assay: Antiproliferative activity on JJN-3 multiple myeloma cells (CellTiter-Glo, 96 hr), Biological Assay C; assay type: cell-based, human; conditions: Homo sapiens, JJN-3, 96 h, JJN-3 (NIK translocated) cells, averaged values, read-out: JJN-3 Proliferation inhibition (IC50 (nM))
Description: as §1, §2, §3

| SMILES | IC50 [1] [nM] | IC50 ([2]; Homo sapiens, L-363, 2 h) [nM] | IC50 [2] [nM] | IC50 [3] [nM] | IC50 [4] [nM] | melting point [°C] |
| --- | --- | --- | --- | --- | --- | --- |
| C[C@]1(CO)CNc2c(C#N)cc(-c3ccnc(Nc4ccccc4C4CCCN4)n3)cc21 (single isomer, unassigned) [Compound 238] | 955 | – | > 832 | – | – | – |
| C[C@]1(CO)CNc2c(C#N)cc(-c3ccnc(Nc4ccc(S(C)(=O)=O)cc4CCC4CC4)n3)cc21 [Compound 2] | 4.3 | 4.8 | – | > 10000 | 58 | – |
| CNC(=O)c1ccc(C)c(Nc2nccc(-c3cc(C#N)c4c(c3)[C@@](C)(CO)CN4)n2)c1 [Compound 4] | 4.2 | 20.9 | – | > 10000 | 759 | – |
| C[C@]1(CO)CNc2c(C#N)cc(-c3ccnc(Nc4cc(C#N)ccc4OC4CC4)n3)cc21 [Compound 10] | 7.4 | 11.5 | – | 1230 | 67 | – |
| CC(C)(O)COc1ccc(C#N)cc1Nc1nccc(-c2cc(C#N)c3c(c2)[C@@](C)(CO)CN3)n1 [Compound 12] | 4.1 | 25.7 | – | 4900 | 138 | – |
| Cc1cc(P(C)(C)=O)c(Cl)cc1Nc1nccc(-c2cc(C#N)c3c(c2)[C@@](C)(CO)CN3)n1 [Compound 20] | 1.7 | 11.5 | – | ~1580 | 63 | – |
| COc1cc(N2CCC(N(C)C)CC2)c(Cl)cc1Nc1nccc(-c2cc(C#N)c3c(c2)C(C)(CO)CN3)n1 (stereo not shown) [Compound 22] | 2.5 | 11.5 | – | 631 | 7 | – |
| Cc1c(NC(=O)C2CCN(C)CC2)cc(Cl)cc1Nc1nccc(-c2cc(C#N)c3c(c2)[C@@](C)(CO)CN3)n1 [Compound 68] | 0.8 | 1.9 | – | 1480 | 16 | – |
| COc1cc(N2CCOCC2)c(Cl)cc1Nc1nccc(-c2cc(C#N)c3c(c2)C(C)(C)CN3)n1 [Compound 79] | 47.9 | 75.9 | – | ~5130 | 91 | – |
| COc1cc(OCC(=O)N(C)C)c(Cl)cc1Nc1nccc(-c2cc(C#N)c3c(c2)C(C)(C)CN3)n1 [Compound 82] | 7.6 | 5.3 | – | > 10000 | 22 | – |
| COc1cc(CO)c(Cl)cc1Nc1nccc(-c2cc(C#N)c3c(c2)C(C)(C)CN3)n1 [Compound 84] | 19.1 | 12.9 | – | ~7590 | 251 | – |
| COc1cc(C(=O)N2CC3(CCCNC3)C2)c(Cl)cc1Nc1nccc(-c2cc(C#N)c3c(c2)C(C)(C)CN3)n1 [Compound 113] | 2.6 | – | – | ~407 | 28 | 178 |
| COc1cc(C(=O)N2CC3(CC(O)C3)C2)c(Cl)cc1Nc1nccc(-c2cc(C#N)c3c(c2)C(C)(C)CN3)n1 [Compound 123] | 8.5 | – | – | 1050 | 14 | 287 |
| Cc1ccc(COC(C)C)cc1Nc1nccc(-c2cc(C#N)c3c(c2)[C@@](C)(CO)CN3)n1 [Compound 149] | 10 | 102 | – | – | – | – |
| Cc1cc(C(=O)NCC2COC2)c(F)cc1Nc1nccc(-c2cc(C#N)c3c(c2)[C@@](C)(CO)CN3)n1 [Compound 187] | 3.2 | – | – | 1100 | 39 | 240 |
| Cc1c(Nc2nccc(-c3cc(C#N)c4c(c3)[C@@](C)(CO)CN4)n2)cccc1C(=O)N1CCN(C2CC2)CC1 [Compound 206] | 5.3 | – | – | ~7240 | 71 | 238 |
| Cc1ccc(C2CN(C)C2)cc1Nc1nccc(-c2cc(C#N)c3c(c2)[C@@](C)(CO)CN3)n1 [Compound 210] | 33.1 | > 10000 | – | – | – | – |

More lines, in order of falling IC50 [1], values ahead:

| IC50 [1] [nM] | IC50 ([2]; Homo sapiens, L-363, 2 h) [nM] | IC50 [2] [nM] | IC50 [3] [nM] | IC50 [4] [nM] | melting point [°C] | SMILES |
| --- | --- | --- | --- | --- | --- | --- |
| 214 | > 832 | – | – | – | – | C[C@]1(CO)CNc2c(C#N)cc(-c3ccnc(Nc4ccccc4C4CCCN4)n3)cc21 (single isomer, unassigned) [Compound 237] |
| 31.6 | 302 | – | – | – | – | Cc1ccc(CN2CCOCC2)c(Nc2nccc(-c3cc(C#N)c4c(c3)[C@@](C)(CO)CN4)n2)c1 [Compound 222] |
| 17.4 | 436 | – | – | – | – | Cc1ccc(C#N)cc1Nc1nccc(-c2cc(C#N)c3c(c2)[C@@](C)(COC(=O)CN2CCN(C)CC2)CN3)n1 [Compound 145] |
| 10.2 | 15.1 | – | > 10000 | 115 | – | CCCCCc1cc(S(C)(=O)=O)ccc1Nc1nccc(-c2cc(C#N)c3c(c2)[C@@](C)(CO)CN3)n1 [Compound 3] |
| 8.5 | – | – | 120 | 12 | 193 | COc1cc(C(=O)N2CCNC(C#N)C2)c(Cl)cc1Nc1nccc(-c2cc(C#N)c3c(c2)C(C)(C)CN3)n1 (stereo not shown) [Compound 121] |
| 4.5 | 6 | – | 2820 | 13 | – | COc1cc(CO)c(Cl)cc1Nc1nccc(-c2cc(C#N)c3c(c2)C(C)(CO)CN3)n1 (stereo not shown) [Compound 24] |
| 3.6 | 33.9 | – | 589 | 12 | – | CN1CCC(Oc2ccc(Cl)cc2Nc2nccc(-c3cc(C#N)c4c(c3)C(C)(CO)CN4)n2)CC1 (stereo not shown) [Compound 25] |
| 2.7 | 7.9 | – | 2040 | 87 | – | Cc1cc(C(=O)NC2CCOCC2)ccc1Nc1nccc(-c2cc(C#N)c3c(c2)C(C)(C)CN3)n1 [Compound 78] |
| 2.5 | 4.5 | – | 891 | 51 | – | COc1cc(C(=O)NC2CCOCC2)ccc1Nc1nccc(-c2cc(C#N)c3c(c2)C(C)(CO)CN3)n1 (stereo not shown) [Compound 21] |
| 2.2 | – | – | 490 | 19 | 206 | COc1cc(C(=O)N2CC3(CCNCC3)C2)c(Cl)cc1Nc1nccc(-c2cc(C#N)c3c(c2)C(C)(C)CN3)n1 [Compound 114] |
| 1.8 | 6 | – | > 10000 | 617 | – | Cc1cc(F)c(C#N)cc1Nc1nccc(-c2cc(C#N)c3c(c2)[C@@](C)(CO)CN3)n1 [Compound 11] |
